In patent publication US11903961B2, “Hemostatic agent and method of production thereof” (AMRITA VISHWA VIDYAPEETHAM, priority 2020, dated 2024):

Tested on: PPP (coagulation cascade)
Assay: PT, aPTT and TT studies on PPP (coagulation analyzer)
Format: biochemical
Conditions: rat PPP incubated 2 min with sample
Protocol: To confirm the role of third agent (Ca) (130) in the hemostatic composition, PT, a PTT and TT studies were performed using ST art 4, Diagnostica Stago, France. PPP was separated from anti-coagulated rat whole blood by centrifugation. PPP was incubated with the developed hemostatic composition for 2 min. For PT study, PPP from incubated sample was added to PT reagent in a cuvette placed in test area of coagulation analyzer and the time taken for PPP to clot was noted as PT. For a PTT study, PPP from incubated sample was further incubated with a PTT reagent after with cuvette was placed in test area and STA®-CaCl2 0.025M solution was added. Time taken for PPP to clot was noted as a PTT. For TT study, PPP from incubated sample was added to TT reagent in a cuvette placed in test area and the time taken for PPP to clot was noted as TT.

[Ca+2].[Cl-].[Cl-] [third agent, calcium chloride]
shorter: PT | TT | aPTT
